Legend:
[1] = test system: HIF-2 (HIF-dependent luciferase reporter, U2OS cells); assay: HIF-2 luciferase reporter assay, U2OS; format: cell-based, human; settings: transfected HIF-2α
From the text: (§1) In addition, P1 had no effect on VEGF protein levels in hypoxic 786-O cells (Figure 6B). To further probe the effect of P1 on HIF-2, a luciferase reporter assay was developed and used. The assay was derived from the HIF-1 luciferase reporter assay detailed above (Figure 2C and D) and adapted for HIF-2 by replacing the plasmid encoding HIF-1α with the equivalent plasmid encoding HIF-2α. […] P2 and P3 also had no effect on HIF-2 in this assay (Figure S9).
(§2) Endogenous HIF-1 luciferase reporter assays were conducted as previously reported in U2OS-HRE-luc[15] and MCF-7 cells.[46] For plasmid-expressed HIF-α luciferase reporter assays, MCF-7 and U2OS cells were transiently transfected with plasmids expressing HIF-1α, HIF-2α, or a blank control (pcDNA3.1-HIF-1α, pcDNA3.1-HIF-2α, or pcDNA3.1), a renilla-encoding control (phRL-TK), and a HIF-dependent firefly luciferase reporter construct (pGL2-TK-HRE), using Transfast (Promega) according to the manufacturer’s instructions. After 24 h, cells were recovered and plated (4000 cells/well) in 96-well plates (Perkin-Elmer) and incubated for 5 h before either hypoxic or aerobic incubation in presence or absence of cyclic peptide inhibitors. Firefly and renilla activities were determined using Dual-Glo Reagent (Promega) according to the manufacturer’s instructions. The luciferase signal was normalized using the corresponding renilla values.

[2] = test system: tubule formation in hypoxic human umbilical vein endothelial cells (HUVEC); assay: HUVEC tubularization; format: cell-based; settings: 250 μM
[3] = test system: HIF-2 (HIF-dependent luciferase reporter, MCF-7 cells); assay: HIF-2 luciferase reporter assay, MCF-7; format: cell-based; settings: MCF-7, transfected HIF-2α
From the text: as §1, §2

[4] = test system: VEGF protein in hypoxic U2OS cells; assay: VEGF protein ELISA, U2OS; format: cell-based, human; settings: hypoxia, 100 μM
Experimental: (§3) Cells were treated with the stated concentrations of inhibitor (P1, P2, or P3) and incubated in normoxia for 4 h, followed by incubation in a hypoxic environment. All manipulation of cell pellets (e.g., lysis, mRNA, and protein extraction) was conducted in a hypoxic environment. […]
(§4) manufacturer’s instructions.
(§5) The loaded beads were washed and blocked with the provide buffers. […]
(§6) reagent (RPN2232, GE Healthcare).
(§7) Fluorescent binding assay
(§8) Scientific, catalogue no. […]
(§9) followed by washing with 3 × 200 µL ELISA buffer. 95 µL of EMSA buffer was added to […]
(§10) The fluorescence of each well at
(§11) Isothermal Titration Calorimetry […]
(§12) iTC200 system (GE Healthcare).
(§13) P2) was dissolved in the same buffer.
(§14) Control experiments for P1 or P2
(§15) Quantification of VGEF-A protein by ELISA […]
(§16) incubation in hypoxia for 16h. VEGF-A protein concentration was quantified by human

[5] = test system: HIF-1 (HIF-dependent luciferase reporter, U2OS-HRE-luc cells); assay: HIF-1-dependent luciferase reporter assay, U2OS-HRE-luc; format: cell-based, human; settings: U2OS-HRE-luc
Experimental: The ability of P1–P3 to disrupt HIF-1 function in cells was assessed using a HIF-1-dependent luciferase reporter assay.[15],[21] The assay uses human osteosarcoma U2OS cells, stably transfected with a HIF-dependent luciferase reporter construct (U2OS-HRE-luc), where activation of HIF results in an increase in luciferase expression.[15]
as §2
(§17) Cells were treated with the stated concentrations of inhibitor (P1, P2, or P3) and incubated in normoxia for 4 h, followed by incubation in a hypoxic environment. All manipulation of cell pellets (e.g., lysis, mRNA, and protein extraction) was conducted in a hypoxic environment.

[6] = test system: U2OS-luc control cell line stably expressing luciferase; assay: Control constitutive luciferase reporter, U2OS-luc; format: cell-based, human
From the text: Figure S3: Identification of cyclic peptide HIF-1 inhibitors. (A) SICLOPPS expression is induced by arabinose, which processes to give a member of the cyclic peptide library. A dimerization inhibitor would be expected to rescue growth of the HIF-1 RTHS on selective media plates containing IPTG, kanamycin and 3-amino-triazole, and arabinose. (B) The ability of the selected cyclic peptides to […]
HIF-1 RTHS containing the corresponding SICLOPPS plasmid onto selective media. In the absence of arabinose the SICLOPPS split-intein is not produced; the HIF-1 RTHS containing plasmids encoding […]
colonies show survival on selective media plates containing IPTG and arabinose (panel 2). Expressing the 3 selected cyclic peptides from mutant SICLOPPS inteins (H24A, F26A mutations in the C- […]
cyclic form of the peptides and their activity. […]
expressing a constitutive luciferase reporter construct. […]

[7] = test system: VEGF protein in hypoxic MCF-7 cells; assay: VEGF protein ELISA, MCF-7; format: cell-based, human; settings: MCF-7, hypoxia, 100 μM
Experimental: as §3, §4, §5, §6, §7, §8, §9, §10, §11, §12, §13, §14, §15, §16

[8] = test system: endogenous HIF-1α/HIF-1β interaction in MCF-7 cells; assay: In situ proximity ligation assay (PLA), MCF-7; format: cell-based; settings: 100 μM, MCF-7, hypoxia (1% O2) 4 h
From the text: The effect of P1 on the endogenous HIF-1α/HIF-1β interaction in intact cells was directly probed using an in situ proximity ligation assay (PLA);[30] primary antibodies (HIF-1α and HIF-1β here) raised in different species are bound by specific secondary antibodies that are tagged with a short DNA strand. The DNA on the interacting PLA probes forms a mini-plasmid that is amplified and bound by a red fluorescent dye. The HIF-1α/HIF-1β interaction is thus visualized as red dots in the DAPI-stained nuclei of MCF-7 and U2OS cells (Figure 4). We observed an increase in PLA signal in MCF-7 cells incubated in hypoxia (1% O2) for 4 h, indicating the expected formation of the HIF-1 dimer in hypoxia (Figure 4, panel 1 versus panel 2). […] The observed effect is not due to a reduction in HIF-1α by P1 (Western blot inset in Figure 4) and thus may be solely attributed to disruption of HIF-1α/HIF-1β dimers.
as §17
Duolink proximity ligation assay was conducted using the in situ PLA Kit (O-Link Bioscience, Uppsala, Sweden) according to the manufacturer’s instructions. […]

Substance: Tat-cyclo-CRLMVL (head to tail) [P2, cyclo-CRLMVL tagged with Tat peptide via a disulfide bond; used as negative control]
- effect on HIF-2 luciferase reporter signal [1]: do not affect
- HUVEC tubularization / tubule length [2]: has no effect
- effect on HIF-2 luciferase reporter signal [3]: do not affect
- VEGF protein level [4]: has no effect in either cell line
- effect on luciferase reporter in hypoxia ([5]; hypoxia (1% O2)): did not show an effect
- effect on luciferase reporter in normoxia (basal) ([5]; normoxia): did not show an effect
- effect on constitutive luciferase signal [6]: do not affect
- VEGF protein level [7]: has no effect in either cell line
- HIF-1 PLA signal [8]: did not have any effect on the PLA signal
